What was measured:
[1] = Lean mice, 6 weeks (Example 66): serum lipids and liver enzymes; format: in vivo, mouse; details: for HDL-cholesterol / LDL-cholesterol / Liver Enzymes ALT / Liver Enzymes AST / Total cholesterol / Triglycerides: serum
Procedure: The accumulation of lipids in liver tissue was also evaluated in lean mice. Male […] mice (Charles River Laboratories (Wilmington, Mass.) at 6 to 7 weeks of age were maintained on a standard rodent diet and were treated twice weekly with intraperitoneal injections of 25 or 50 mg/kg 147764 (SEQ ID NO: 109) or 147483 (SEQ ID NO: 79) for 6 weeks. Saline treated animals served as controls. Each treatment group was comprised of 4 animals. Animals were sacrificed after the 6 week treatment period, at which point liver tissue and serum were collected.
Total cholesterol, LDL-cholesterol, HDL-cholesterol and triglycerides in serum were measured by routine clinical analysis using an Olympus Clinical Analyzer (Olympus America Inc., Melville, N.Y.). The liver enzymes ALT and […] in serum were also measured using the Olympus Clinical Analyzer.

[2] = High fat fed C57BL/6 mice, 6 week timecourse: serum cholesterol, triglyceride, lipoprotein and glucose levels; format: in vivo, mouse; details: for Percent Inhibition HDL / Percent Inhibition LDL / Percent Inhibition VLDL: negative = increase; for Percent Inhibition of serum cholesterol levels: normalized to saline control; for Triglycerides: study end (control 115 mg/dL); for serum cholesterol: study end (control 240 mg/dL); for serum glucose levels: study termination (saline control 300 mg/dL)
Procedure: Male C57BL/6 mice (n=8) receiving a high fat diet (60% kcal fat) were evaluated over the course of 6 weeks for the effects of treatment with the antisense oligonucleotide, ISIS 147764. Control animals received saline treatment (50 mg/kg). A subset of animals received a daily oral dose (20 mg/kg) atorvastatin calcium (Lipitor®, Pfizer Inc.). All mice, except atorvastatin-treated animals, were dosed intraperitoneally every three days (twice a week), after fasting overnight, with 5, 25, 50 mg/kg ISIS 147764 (SEQ ID No: 109) or saline (50 mg/kg) for six weeks. Serum cholesterol and lipoproteins were analyzed at 0, 2 and 6 week interim timepoints. At study termination, animals were sacrificed 48 hours after the final injections and evaluated for levels of target mRNA levels in liver, cholesterol, lipoprotein, triglyceride, liver enzyme (AST and ALT) and serum glucose levels as well as body, liver, spleen and fat pad weights.
Male C57BL/6 mice (n=8) receiving a high fat diet (60% kcal fat) were evaluated over the course of 6 weeks for the effects of ISIS 147764 on serum cholesterol and triglyceride levels. Control animals received saline treatment (50 mg/kg). Mice were dosed intraperitoneally every three days (twice a week), after fasting overnight, with 5, 25, 50 mg/kg ISIS 147764 (SEQ ID No: 109) or saline (50 mg/kg) for six weeks.
Values in the table are expressed as percent inhibition and are normalized to the saline control.
In addition to serum cholesterol, at study termination, animals were sacrificed 48 hours after the final injections and evaluated for triglyceride levels.
Male C57BL/6 mice (n=8) receiving a high fat diet (60% kcal fat) were evaluated over the course of 6 weeks for the effects of ISIS 147764 on lipoprotein (VLDL, LDL and HDL) levels. Control animals received saline treatment (50 mg/kg). Mice were dosed intraperitoneally every three days (twice a week), after fasting overnight, with 5, 25, 50 mg/kg ISIS 147764 (SEQ ID No: 109) or saline (50 mg/kg) for six weeks.
Values in the table are expressed as percent inhibition and are normalized to the saline control. Negative values indicate an observed increase in lipoprotein levels.
Male C57BL/6 mice (n=8) receiving a high fat diet (60% kcal fat) were evaluated over the course of 6 weeks for the effects of ISIS 147764 on serum glucose levels. Control animals received saline treatment (50 mg/kg). Mice were dosed intraperitoneally every three days (twice a week), after fasting overnight, with 5, 25, 50 mg/kg ISIS 147764 (SEQ ID No: 109) or saline (50 mg/kg) for six weeks.
At study termination, animals were sacrificed 48 hours after the final injections and evaluated for serum glucose levels. […] Mice treated with atorvastatin at a daily oral dose of 20 mg/kg had serum glucose levels of 215 mg/dL.

[3] = Long-term study in lean Cynomolgous monkeys (Example 64): intact oligonucleotide in liver by capillary gel electrophoresis; format: in vivo, Cynomolgous monkey; details: for antisense oligonucleotide concentration: liver tissue, one month
Procedure: The results from the one month interval of the long term treatment are shown in Table 50 and are normalized to saline-treated animals for mRNA and to untreated baseline values for lipid levels. Total cholesterol, LDL-cholesterol, HDL-cholesterol, LDL particle concentration and triglyceride levels in serum were measured by nuclear magnetic resonance spectroscopy by Liposcience (Raleigh, N.C.). Additionally, the concentration of intact oligonucleotide in liver was measured by capillary gel electrophoresis and is presented as micrograms of oligonucleotide per gram of liver tissue. Each result represents the average of data from 4 animals (2 males and 2 females).

## GTCCCTGAAGATGTCAATGC (2'-MOE gapmer, further chemistry not given here) [ISIS 147764]
[1]; 25 or 50 mg/kg i.p. twice weekly
  serum lipids relative to saline-treated control animals: lowers serum lipids
[1]; 25 mg/kg i.p. twice weekly
  HDL-cholesterol: 79 mg/dL
  LDL-cholesterol: 29 mg/dL
  Liver Enzymes ALT: 47 IU/L
  Liver Enzymes AST: 81 IU/L
  Total cholesterol: 114 mg/dL
  Triglycerides: 80 mg/dL
[1]; 50 mg/kg i.p. twice weekly
  HDL-cholesterol: 38 mg/dL
  LDL-cholesterol: 18 mg/dL
  Liver Enzymes ALT: 48 IU/L
  Liver Enzymes AST: 101 IU/L
  Total cholesterol: 57 mg/dL
  Triglycerides: 30 mg/dL
[2]; 5 mg/kg i.p., 0 weeks
  Percent Inhibition HDL: 0%
  Percent Inhibition LDL: 0%
  Percent Inhibition VLDL: 0%
  Percent Inhibition of serum cholesterol levels: 0%
[2]; 5 mg/kg i.p., 2 weeks
  Percent Inhibition HDL: 5%
  Percent Inhibition LDL: −30%
  Percent Inhibition VLDL: 25%
  Percent Inhibition of serum cholesterol levels: 5%
[2]; 5 mg/kg i.p., 6 weeks
  Percent Inhibition HDL: 10%
  Percent Inhibition LDL: −10%
  Percent Inhibition VLDL: 10%
  Percent Inhibition of serum cholesterol levels: 10%
[2]; 5 mg/kg
  Triglycerides: 125 mg/dL
  serum cholesterol: 225 mg/dL
  serum glucose levels: 225 mg/dL
[2]; 25 mg/kg i.p., 0 weeks
  Percent Inhibition HDL: 0%
  Percent Inhibition LDL: 0%
  Percent Inhibition VLDL: 0%
  Percent Inhibition of serum cholesterol levels: 0%
[2]; 25 mg/kg i.p., 2 weeks
  Percent Inhibition HDL: 10%
  Percent Inhibition LDL: 10%
  Percent Inhibition VLDL: 30%
  Percent Inhibition of serum cholesterol levels: 12%
[2]; 25 mg/kg i.p., 6 weeks
  Percent Inhibition HDL: 45%
  Percent Inhibition LDL: 55%
  Percent Inhibition VLDL: −30%
  Percent Inhibition of serum cholesterol levels: 45%
[2]; 25 mg/kg
  Triglycerides: 150 mg/dL
  serum cholesterol: 125 mg/dL
  serum glucose levels: 190 mg/dL
[2]; 50 mg/kg
  lowering of serum lipoproteins compared to atorvastatin: lowering all categories of serum lipoproteins investigated to a greater extent than atorvastatin
  Triglycerides: 85 mg/dL
  serum cholesterol: 110 mg/dL
  serum glucose levels: 180 mg/dL
[2]; 50 mg/kg i.p., 0 weeks
  Percent Inhibition HDL: 0%
  Percent Inhibition LDL: 0%
  Percent Inhibition VLDL: 0%
  Percent Inhibition of serum cholesterol levels: 0%
[2]; 50 mg/kg i.p., 2 weeks
  Percent Inhibition HDL: 10%
  Percent Inhibition LDL: 40%
  Percent Inhibition VLDL: 40%
  Percent Inhibition of serum cholesterol levels: 20%
[2]; 50 mg/kg i.p., 6 weeks
  Percent Inhibition HDL: 50%
  Percent Inhibition LDL: 90%
  Percent Inhibition VLDL: 15%
  Percent Inhibition of serum cholesterol levels: 55%

## ISIS 301012: SEQ ID NO: 247, antisense oligonucleotide targeted to human apolipoprotein B (antisense GCCTCAGTCTGCTTCGCACC; chemistry not given here)
[3]; intravenous 2 mg/kg
  antisense oligonucleotide concentration: 92 µg/g
[3]; intravenous 4 mg/kg
  antisense oligonucleotide concentration: 179 µg/g
[3]; intravenous 12 mg/kg
  antisense oligonucleotide concentration: 550 µg/g
[3]; subcutaneous 20 mg/kg
  antisense oligonucleotide concentration: 855 µg/g
[3]; one month interval
  accumulation of antisense oligonucleotide in the liver: accumulates in the liver in a dose-dependent manner
